Measured values from paper PMC5218480 (PLoS ONE, 2017).

Tested on: MV-4-11 cells
Assay: Gene expression microarray analysis (Affymetrix PrimeView) and GSEA
Type: cell-based, human
Set-up: RFU PODN (11730768_x_at) / Fold change /veh PODN (11730768_x_at) / RFU LINC00158 (11744669_a_at) / Fold change /veh LINC00158 (11744669_a_at) / RFU DUSP10 (11751237_a_at) / Fold change /veh DUSP10 (11751237_a_at) / RFU ID3 (11757404_x_at) / Fold change /veh ID3 (11757404_x_at) / RFU PLEKHG5 (11737974_s_at) / Fold change /veh PLEKHG5 (11737974_s_at) / RFU LRRC4B (11730491_at) / Fold change /veh LRRC4B (11730491_at) / RFU GIMAP4 (11747438_a_at) / Fold change /veh GIMAP4 (11747438_a_at) / RFU KRT8 (11758183_x_at) / Fold change /veh KRT8 (11758183_x_at) / RFU CNN1 (11734310_a_at) / Fold change /veh CNN1 (11734310_a_at) / RFU VPS37D (11726825_at) / Fold change /veh VPS37D (11726825_at) / RFU C10orf10 (11716522_x_at) / Fold change /veh C10orf10 (11716522_x_at) / RFU KIR2DL2 /// KIR2DL4 /// KIR2DL5A /// KIR2DL5B /// KIR2DS1 /// KIR2DS2 /// KIR2DS3 /// KIR2DS4 /// KIR3DL3 /// KIR3DL3 /// KIR3DS1 (11738374_at) / Fold change /veh KIR2DL2 /// KIR2DL4 /// KIR2DL5A /// KIR2DL5B /// KIR2DS1 /// KIR2DS2 /// KIR2DS3 /// KIR2DS4 /// KIR3DL3 /// KIR3DL3 /// KIR3DS1 (11738374_at) / RFU C1QL1 (11718748_at) / Fold change /veh C1QL1 (11718748_at) / RFU TMPRSS4 (11747572_a_at) / Fold change /veh TMPRSS4 (11747572_a_at) / RFU HAMP (11756126_x_at) / Fold change /veh HAMP (11756126_x_at) / RFU RNFT2 (11725882_a_at) / Fold change /veh RNFT2 (11725882_a_at) / RFU NR4A2 (11747474_a_at) / Fold change /veh NR4A2 (11747474_a_at) / RFU ABCC12 (11746883_a_at) / Fold change /veh ABCC12 (11746883_a_at) / RFU TMEM136 (11760407_x_at) / Fold change /veh TMEM136 (11760407_x_at) / RFU CLDN22 /// WWC2 (11732394_at) / Fold change /veh CLDN22 /// WWC2 (11732394_at) / RFU HLA-DPB1 (11760878_x_at) / Fold change /veh HLA-DPB1 (11760878_x_at) / RFU SPINT1 (11716480_a_at) / Fold change /veh SPINT1 (11716480_a_at) / RFU GAP43 (11754022_s_at) / Fold change /veh GAP43 (11754022_s_at) / RFU A4GNT (11735810_at) / Fold change /veh A4GNT (11735810_at) / RFU PRB3 (11715151_x_at) / Fold change /veh PRB3 (11715151_x_at) / RFU TUBB4B (11761932_at) / Fold change /veh TUBB4B (11761932_at) / RFU CAPN14 (11732068_a_at) / Fold change /veh CAPN14 (11732068_a_at) / RFU TMCC2 (11721928_a_at) / Fold change /veh TMCC2 (11721928_a_at) / RFU IRGQ (11745062_a_at) / Fold change /veh IRGQ (11745062_a_at) / RFU FAM174B (11720279_a_at) / Fold change /veh FAM174B (11720279_a_at) / RFU TMPRSS4 (11748680_a_at) / Fold change /veh TMPRSS4 (11748680_a_at) / RFU FAM212B (11763350_a_at) / Fold change /veh FAM212B (11763350_a_at) / RFU PLEKHG5 (11743358_a_at) / Fold change /veh PLEKHG5 (11743358_a_at) / RFU ZSCAN30 (11745921_a_at) / Fold change /veh ZSCAN30 (11745921_a_at) / RFU CMKLR1 (11741424_a_at) / Fold change /veh CMKLR1 (11741424_a_at) / RFU LOC101060620 /// MAPK8IP1 (11723275_at) / Fold change /veh LOC101060620 /// MAPK8IP1 (11723275_at) / RFU SPTSSB (11747773_x_at) / Fold change /veh SPTSSB (11747773_x_at) / RFU PRSS12 (11739890_at) / Fold change /veh PRSS12 (11739890_at) / RFU BIN1 (11741810_x_at) / Fold change /veh BIN1 (11741810_x_at) / RFU WNT11 (11732464_a_at) / Fold change /veh WNT11 (11732464_a_at) / RFU C10orf10 (11716521_a_at) / Fold change /veh C10orf10 (11716521_a_at) / RFU C5orf56 (11738089_at) / Fold change /veh C5orf56 (11738089_at) / RFU CYB561 (11721691_x_at) / Fold change /veh CYB561 (11721691_x_at) / RFU ANKRD19P (11752326_a_at) / Fold change /veh ANKRD19P (11752326_a_at) / RFU OR2T12 /// OR2T33 /// OR2T8 (11738714_s_at) / Fold change /veh OR2T12 /// OR2T33 /// OR2T8 (11738714_s_at) / RFU VCAN (11748164_a_at) / Fold change /veh VCAN (11748164_a_at) / RFU JSRP1 (11732532_at) / Fold change /veh JSRP1 (11732532_at) / RFU KRTAP10-11 (11738290_x_at) / Fold change /veh KRTAP10-11 (11738290_x_at) / RFU MYO3A (11730013_a_at) / Fold change /veh MYO3A (11730013_a_at) / RFU EBF3 (11725865_a_at) / Fold change /veh EBF3 (11725865_a_at) / RFU CAMK2N1 (11719241_x_at) / Fold change /veh CAMK2N1 (11719241_x_at) / RFU C5orf56 (11738088_a_at) / Fold change /veh C5orf56 (11738088_a_at) / RFU OLFML3 (11715873_a_at) / Fold change /veh OLFML3 (11715873_a_at) / RFU LOC100653217 /// NTM (11731650_a_at) / Fold change /veh LOC100653217 /// NTM (11731650_a_at) / RFU MAPK11 (11762145_a_at) / Fold change /veh MAPK11 (11762145_a_at) / RFU FIZ1 (11724087_x_at) / Fold change /veh FIZ1 (11724087_x_at) / RFU OASL (11726364_x_at) / Fold change /veh OASL (11726364_x_at) / RFU SOX15 (11748057_x_at) / Fold change /veh SOX15 (11748057_x_at) / RFU CD79A (11719716_a_at) / Fold change /veh CD79A (11719716_a_at) / RFU HIST1H1D (11736915_at) / Fold change /veh HIST1H1D (11736915_at) / RFU CASKIN2 (11723855_a_at) / Fold change /veh CASKIN2 (11723855_a_at) / RFU LOC730098 (11760151_x_at) / Fold change /veh LOC730098 (11760151_x_at) / RFU OR4N2 (11742367_at) / Fold change /veh OR4N2 (11742367_at) / RFU PRRT2 (11749266_a_at) / Fold change /veh PRRT2 (11749266_a_at) / RFU SNX32 (11753110_a_at) / Fold change /veh SNX32 (11753110_a_at) / RFU CDHR5 (11726645_a_at) / Fold change /veh CDHR5 (11726645_a_at) / RFU RCAN1 (11760418_a_at) / Fold change /veh RCAN1 (11760418_a_at) / RFU FAM167A (11723789_a_at) / Fold change /veh FAM167A (11723789_a_at) / RFU FAM26E (11764081_at) / Fold change /veh FAM26E (11764081_at) / RFU ISYNA1 (11749810_s_at) / Fold change /veh ISYNA1 (11749810_s_at) / RFU ACY1 (11761880_at) / Fold change /veh ACY1 (11761880_at) / RFU 11764098_at / Fold change /veh 11764098_at / RFU SAMD14 (11745864_x_at) / Fold change /veh SAMD14 (11745864_x_at) / RFU NPB (11741838_a_at) / Fold change /veh NPB (11741838_a_at) / RFU TMPRSS6 (11731388_a_at) / Fold change /veh TMPRSS6 (11731388_a_at) / RFU KRTAP10-2 (11738614_at) / Fold change /veh KRTAP10-2 (11738614_at) / RFU ARHGAP8 /// PRR5-ARHGAP8 (11727945_x_at) / Fold change /veh ARHGAP8 /// PRR5-ARHGAP8 (11727945_x_at) / RFU KRTAP5-7 /// NADSYN1 (11734609_at) / Fold change /veh KRTAP5-7 /// NADSYN1 (11734609_at) / RFU RASL12 (11751679_a_at) / Fold change /veh RASL12 (11751679_a_at) / RFU CDKN2B (11736163_a_at) / Fold change /veh CDKN2B (11736163_a_at) / RFU PRF1 (11729649_at) / Fold change /veh PRF1 (11729649_at) / RFU, ZNF638 /// ZNF638-IT1 / Fold change vs veh, ZNF638 /// ZNF638-IT1 / RFU, PANK3 / Fold change vs veh, PANK3 / RFU, SH3YL1 / Fold change vs veh, SH3YL1 / RFU, ZEB2 / Fold change vs veh, ZEB2 / RFU, NRIP1 / Fold change vs veh, NRIP1 / RFU, PTTG1IP / Fold change vs veh, PTTG1IP / RFU, CAPN2 / Fold change vs veh, CAPN2 / RFU, MED14 / Fold change vs veh, MED14 / RFU, SNORA58 / Fold change vs veh, SNORA58 / RFU, C1orf63 / Fold change vs veh, C1orf63 / RFU, LRRFIP1 / Fold change vs veh, LRRFIP1 / RFU, NDUFAF7 / Fold change vs veh, NDUFAF7 / RFU, SLC12A2 / Fold change vs veh, SLC12A2 / RFU, IBTK / Fold change vs veh, IBTK / RFU, ESF1 / Fold change vs veh, ESF1 / Fold change vs veh, TMEM50B / RFU, TAOK1 / Fold change vs veh, TAOK1 / RFU, ACBD3 / Fold change vs veh, ACBD3 / RFU, TMA16 / Fold change vs veh, TMA16 / RFU, RWDD3 / Fold change vs veh, RWDD3 / RFU, BCAT1 / Fold change vs veh, BCAT1 / RFU, EDEM3 / Fold change vs veh, EDEM3 / RFU, TMEM33 / Fold change vs veh, TMEM33 / RFU, WDR75 / Fold change vs veh, WDR75 / RFU, AHCTF1 / Fold change vs veh, AHCTF1 / RFU, TFRC / Fold change vs veh, TFRC / RFU, ZDHHC17 / Fold change vs veh, ZDHHC17 / RFU, NOM1 / Fold change vs veh, NOM1 / RFU, ARL8B / Fold change vs veh, ARL8B / RFU, ZBTB11 / Fold change vs veh, ZBTB11 / RFU, TAMM41 / Fold change vs veh, TAMM41 / RFU, KIAA1704 /// LOC100996395 / Fold change vs veh, KIAA1704 /// LOC100996395 / RFU, ING1 / Fold change vs veh, ING1 / RFU, TRMT61B / Fold change vs veh, TRMT61B / RFU, FUBP3 / Fold change vs veh, FUBP3 / RFU, TP53 / Fold change vs veh, TP53 / RFU, TNKS2 / Fold change vs veh, TNKS2 / RFU, ZFP14 / Fold change vs veh, ZFP14 / RFU, ACTR2 / Fold change vs veh, ACTR2 / RFU, PPP3R1 / Fold change vs veh, PPP3R1 / RFU, PIK3R1 / Fold change vs veh, PIK3R1 / RFU, HNRNPA1 / Fold change vs veh, HNRNPA1 / RFU, RNF170 / Fold change vs veh, RNF170 / RFU, ZNF28 / Fold change vs veh, ZNF28 / RFU, RNGTT / Fold change vs veh, RNGTT / RFU, OGT / Fold change vs veh, OGT / RFU, BRD1 / Fold change vs veh, BRD1 / RFU, MARS / Fold change vs veh, MARS / RFU, ZNF655 / Fold change vs veh, ZNF655 / RFU, FAHD1 / Fold change vs veh, FAHD1 / RFU, BDP1 / Fold change vs veh, BDP1 / RFU, LRRCC1 / Fold change vs veh, LRRCC1 / RFU, ARID1A / Fold change vs veh, ARID1A / RFU, ZNF146 / Fold change vs veh, ZNF146 / RFU, ZNF330 / Fold change vs veh, ZNF330 / RFU, GPN3 / Fold change vs veh, GPN3 / RFU, C9orf123 / Fold change vs veh, C9orf123 / RFU, N4BP2L2 / Fold change vs veh, N4BP2L2 / RFU, ARFIP1 / Fold change vs veh, ARFIP1 / RFU, FAM179B / Fold change vs veh, FAM179B / RFU, BCL10 / Fold change vs veh, BCL10 / RFU, UHRF1BP1L / Fold change vs veh, UHRF1BP1L / RFU, BET1 / Fold change vs veh, BET1 / RFU, CNOT2 / Fold change vs veh, CNOT2 / RFU, ZNF268 / Fold change vs veh, ZNF268 / Fold change vs veh, ZNF507 / RFU, DGCR2 / Fold change vs veh, DGCR2 / RFU, WDSUB1 / Fold change vs veh, WDSUB1 / Fold change vs veh, HSP90B1 /// MIR3652 / RFU, ADSS / Fold change vs veh, ADSS / RFU, GK / Fold change vs veh, GK / RFU, ZNF148 / Fold change vs veh, ZNF148 / RFU, TAF9 / Fold change vs veh, TAF9 / RFU, SLC1A5 / Fold change vs veh, SLC1A5 / RFU, SLMO2 / Fold change vs veh, SLMO2 / RFU, ABCC4 / Fold change vs veh, ABCC4 / RFU, LOC101060439 /// RAP1B / Fold change vs veh, LOC101060439 /// RAP1B / RFU, RFX7 / Fold change vs veh, RFX7 / RFU, GTPBP10 / Fold change vs veh, GTPBP10 / RFU, CNEP1R1 / Fold change vs veh, CNEP1R1 / RFU, BIVM-ERCC5 /// ERCC5 / Fold change vs veh, BIVM-ERCC5 /// ERCC5 / RFU, ILF3 / Fold change vs veh, ILF3 / RFU 11762660_at / Fold change /veh 11762660_at / RFU VCAN (11757783_s_at) / Fold change /veh VCAN (11757783_s_at) / RFU DDX43 (11728927_at) / Fold change /veh DDX43 (11728927_at) / RFU KRT8 (11758188_x_at) / Fold change /veh KRT8 (11758188_x_at) / RFU NKD1 (11759106_at) / Fold change /veh NKD1 (11759106_at) / RFU SRD5A1 (11742802_a_at) / Fold change /veh SRD5A1 (11742802_a_at) / RFU TPSAB1 /// TPSB2 (11721975_s_at) / Fold change /veh TPSAB1 /// TPSB2 (11721975_s_at) / RFU GSTM3 (11746129_a_at) / Fold change /veh GSTM3 (11746129_a_at) / RFU IL23R (11737362_x_at) / Fold change /veh IL23R (11737362_x_at) / RFU TMEM51 (11727254_a_at) / Fold change /veh TMEM51 (11727254_a_at) / RFU PIWIL2 (11732686_x_at) / Fold change /veh PIWIL2 (11732686_x_at) / RFU ORM1 (11744905_x_at) / Fold change /veh ORM1 (11744905_x_at) / RFU CCDC152 (11743942_at) / Fold change /veh CCDC152 (11743942_at) / RFU ECM1 (11717891_a_at) / Fold change /veh ECM1 (11717891_a_at) / RFU IL23R (11748794_a_at) / Fold change /veh IL23R (11748794_a_at) / RFU TNFAIP8L3 (11732012_x_at) / Fold change /veh TNFAIP8L3 (11732012_x_at) / RFU MBOAT4 (11741988_at) / Fold change /veh MBOAT4 (11741988_at) / RFU 11764193_at / Fold change /veh 11764193_at / RFU TMEM53 (11763286_at) / Fold change /veh TMEM53 (11763286_at) / RFU MAGEB2 (11727129_at) / Fold change /veh MAGEB2 (11727129_at) / RFU TMEM200A (11744735_a_at) / Fold change /veh TMEM200A (11744735_a_at) / RFU CCDC152 (11751479_a_at) / Fold change /veh CCDC152 (11751479_a_at) / RFU FAM211A (11726209_a_at) / Fold change /veh FAM211A (11726209_a_at) / RFU RGS16 (11746705_a_at) / Fold change /veh RGS16 (11746705_a_at) / RFU VCAN (11755009_s_at) / Fold change /veh VCAN (11755009_s_at) / RFU RHOB (11743442_s_at) / Fold change /veh RHOB (11743442_s_at) / RFU RGS16 (11720943_a_at) / Fold change /veh RGS16 (11720943_a_at) / RFU RGS16 (11720944_at) / Fold change /veh RGS16 (11720944_at) / RFU, VPS4B / Fold change vs veh, VPS4B / RFU, CREB1 / Fold change vs veh, CREB1 / RFU, DNAJC13 / Fold change vs veh, DNAJC13 / RFU, GNAQ / Fold change vs veh, GNAQ / RFU, CDK5R1 / Fold change vs veh, CDK5R1 / RFU, ZRANB3 / Fold change vs veh, ZRANB3 / RFU, CUL4A / Fold change vs veh, CUL4A / RFU, CCNY / Fold change vs veh, CCNY / RFU, UFL1 / Fold change vs veh, UFL1 / RFU, COG3 / Fold change vs veh, COG3 / RFU, DIAPH2 / Fold change vs veh, DIAPH2 / RFU, SKA2 / Fold change vs veh, SKA2 / RFU, AFF3 / Fold change vs veh, AFF3 / RFU, LMF1 / Fold change vs veh, LMF1 / RFU, IPO11 / Fold change vs veh, IPO11 / RFU, DFFB / Fold change vs veh, DFFB / RFU, FOXP1 / Fold change vs veh, FOXP1 / RFU, CARD8 / Fold change vs veh, CARD8 / RFU, STRN3 / Fold change vs veh, STRN3 / RFU, ADK / Fold change vs veh, ADK / RFU, RASSF2 / Fold change vs veh, RASSF2 / RFU, WIPF1 / Fold change vs veh, WIPF1 / RFU, LARP1B / Fold change vs veh, LARP1B / RFU, RASA1 / Fold change vs veh, RASA1 / RFU, RB1 / Fold change vs veh, RB1 / RFU, PPFIA1 / Fold change vs veh, PPFIA1 / RFU, MAT2A / Fold change vs veh, MAT2A / RFU, CCT5 / Fold change vs veh, CCT5 / RFU, WDR92 / Fold change vs veh, WDR92 / RFU, CUX1 / Fold change vs veh, CUX1 / RFU, TTC7A / Fold change vs veh, TTC7A / RFU, TMEM135 / Fold change vs veh, TMEM135 / RFU, DEPTOR / Fold change vs veh, DEPTOR / RFU, CPM / Fold change vs veh, CPM / RFU, DNAJB6 / Fold change vs veh, DNAJB6 / RFU, CACNA2D3 / Fold change vs veh, CACNA2D3 / RFU, DTX4 / Fold change vs veh, DTX4 / RFU, TFCP2 / Fold change vs veh, TFCP2 / RFU, GMCL1 /// GMCL1P1 / Fold change vs veh, GMCL1 /// GMCL1P1 / RFU, AEBP2 / Fold change vs veh, AEBP2 / RFU, SNHG1 /// SNORD22 /// SNORD25 /// SNORD26 /// SNORD27 /// SNORD28 /// SNORD29 /// SNORD31 / Fold change vs veh, SNHG1 /// SNORD22 /// SNORD25 /// SNORD26 /// SNORD27 /// SNORD28 /// SNORD29 /// SNORD31 / Fold change (Aza/veh), C12orf56 (ProbeSet 11735607_a_at) / Fold change (ACY-1035/veh), C12orf56 (ProbeSet 11735607_a_at) / Fold change (Aza/veh), FGFR1OP (ProbeSet 11751329_s_at) / Fold change (ACY-1035/veh), FGFR1OP (ProbeSet 11751329_s_at) / Fold change (Aza/veh), VPS36 (ProbeSet 11739960_a_at) / Fold change (ACY-1035/veh), VPS36 (ProbeSet 11739960_a_at) / RFU SYPL1 (11715823_x_at) / Fold change /veh SYPL1 (11715823_x_at) / RFU IGFBP7 (11715501_s_at) / Fold change /veh IGFBP7 (11715501_s_at) / RFU REEP3 (11722064_at) / Fold change /veh REEP3 (11722064_at) / RFU IGLL1 (11728026_x_at) / Fold change /veh IGLL1 (11728026_x_at): dose or concentration left out as unconfirmed
Conditions: ProbeSet 11729384_s_at; LIST D

SMILES: Nc1ccc(-c2cccs2)cc1NC(=O)c1ccc2c(c1)cc(C1CC1)n2CCN1CCOCC1 [ACY-1035]
- Fold change vs veh, CCNY: 0.87
